Source: the NIST ThermoML archive (doi:10.1016/j.jct.2008.06.002)
Values joined by “and” are separate entries in the source; they are usually repeats but may differ in a detail not shown here. Equal values may be shown once. ± gives the expanded uncertainty stated by the source.

Conditions: Liquid

Structure (SMILES): CC(F)F [1,1-difluoroethane]
- vapor or sublimation pressure (253.68 K): 115.2 ± 4.5 kPa
- vapor or sublimation pressure (258.44 K): 142.2 ± 5.5 kPa and 144 ± 5.5 kPa
- vapor or sublimation pressure (263.39 K): 174.9 ± 6.7 kPa
- vapor or sublimation pressure (268.32 K): 213.7 ± 8.1 kPa
- vapor or sublimation pressure (273.23 K): 256.8 ± 9.7 kPa
- vapor or sublimation pressure (278.19 K): 308.1 ± 12 kPa
- vapor or sublimation pressure (278.25 K): 311.7 ± 12 kPa
- vapor or sublimation pressure (283.31 K): 368.5 ± 14 kPa
- vapor or sublimation pressure (288.27 K): 432.9 ± 16 kPa
- vapor or sublimation pressure (293.23 K): 506.8 ± 19 kPa
- vapor or sublimation pressure (298.17 K): 590.3 ± 22 kPa
- vapor or sublimation pressure (298.84 K): 604.4 ± 23 kPa
- vapor or sublimation pressure (303.37 K): 687.6 ± 26 kPa
- vapor or sublimation pressure (308.31 K): 791 ± 30 kPa
- vapor or sublimation pressure (308.37 K): 812.5 ± 30 kPa
- vapor or sublimation pressure (313.19 K): 904.5 ± 34 kPa
- vapor or sublimation pressure (318.25 K): 1034.8 ± 39 kPa
- vapor or sublimation pressure (323.26 K): 1175.4 ± 44 kPa
- vapor or sublimation pressure (323.3 K): 1185.5 ± 44 kPa
- vapor or sublimation pressure (328.12 K): 1326.8 ± 50 kPa
- vapor or sublimation pressure (333.31 K): 1502.3 ± 56 kPa
- vapor or sublimation pressure (338.19 K): 1683.5 ± 63 kPa
- vapor or sublimation pressure (343.1 K): 1879.6 ± 70 kPa
- vapor or sublimation pressure (343.2 K): 1891.7 ± 71 kPa
- vapor or sublimation pressure (348.26 K): 2104.6 ± 78 kPa

Structure (SMILES): O=C=O [carbon dioxide]
- vapor or sublimation pressure (258.44 K): 2294 ± 43 kPa
- vapor or sublimation pressure (278.25 K): 3977 ± 74 kPa
- vapor or sublimation pressure (298.84 K): 6502.6 ± 120 kPa
